Laboratory results from patent publication US20240228543A1, “CYCLIC PEPTIDE INHIBITORS OF USP22” (THE JOHNS HOPKINS UNIVERSITY, priority 2021, published 2024).
Positions of bridges follow the written chain, without caps; N, C: chain ends. Non-standard residues stand in square brackets, D forms with d. Residues, ends and D or L forms follow the SMILES beside them.

How the values were obtained:
[1] = molecular target: USP22/ATXN7L3/ENY2/ATXN7 (hDUBm) (Homo sapiens, UniProt Q9UPT9); experiment: biochemical
Procedure: Cleavage rates of 5 μM Ub-AMC were assayed for 75 nM USP22/ATXN7L3/ENY2/ATXN7 (hDUBm), 100 nM USP27x/ATXN7L3/ENY2, or 1000 nM USP51/ATXN7L3/ENY2. Rates were normalized to the uninhibited reaction in each case to determine the fraction of apparent activity.
DUB specificity assays Ubiquitin-rhodamine(110)-glycine cleavage rates were measured for all DUBs available in the DUBprofiler™ panel with two independent replicates (44 in total; Ubiquigent). […] USP22 was not included in the panel, and is not represented in FIG. 12A. […] Initial cleavage rates of each complex were measured on a fixed concentration of 5 μM Ub-AMC.
Heterotrimeric complexes containing USP27x and USP51 were purified, respectively, in complex with ENY2 and ATXN7L3. The activity of these complexes on Ub-AMC was compared to that of the human DUBm, which contains USP22, ENY2, ATXN7L3, and a fourth subunit, ATXN7, that anchors the DUBm to the rest of the SAGA complex.

USP27x = molecular target: T1, USP27x (Homo sapiens, UniProt A6NNY8); experiment: DUBprofiler panel, USP27x alone; assay type: biochemical; settings: 1 μM hD1, USP27x alone without other subunits
T1 construct: purchased Ubiquigent (DUBprofiler panel)
T1 sequence (A6NNY8 1-438): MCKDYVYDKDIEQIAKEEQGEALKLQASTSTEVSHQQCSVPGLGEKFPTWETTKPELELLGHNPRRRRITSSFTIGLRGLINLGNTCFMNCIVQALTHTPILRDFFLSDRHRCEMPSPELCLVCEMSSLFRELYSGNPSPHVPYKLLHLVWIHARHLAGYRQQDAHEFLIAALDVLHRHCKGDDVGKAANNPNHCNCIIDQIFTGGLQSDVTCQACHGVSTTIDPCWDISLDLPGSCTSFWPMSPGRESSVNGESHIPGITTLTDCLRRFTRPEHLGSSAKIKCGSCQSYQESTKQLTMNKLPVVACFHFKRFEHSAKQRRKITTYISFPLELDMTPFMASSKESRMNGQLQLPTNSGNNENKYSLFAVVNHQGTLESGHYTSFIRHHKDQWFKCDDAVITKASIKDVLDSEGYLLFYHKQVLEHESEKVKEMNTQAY
Procedure: The human genome encodes about 80 active DUBs, 55 of which belong to the same USP structural family as USP22, thus presenting a challenge to the development of specific DUB inhibitors. […] The activity of each DUB was tested in the presence of a single concentration of inhibitor and compared with enzyme activity in the absence of compound. […] In this screen, however, USP27x alone was tested in the absence of other subunits.

USP30 = molecular target: T2, USP30 (Homo sapiens, UniProt Q70CQ3); experiment: End-point Ub-AMC cleavage by off-target DUB USP30; assay type: biochemical; settings: 1 μM hD1, 200 nM USP30, 1 μM Ub-AMC
T2 sequence (Q70CQ3 1-517): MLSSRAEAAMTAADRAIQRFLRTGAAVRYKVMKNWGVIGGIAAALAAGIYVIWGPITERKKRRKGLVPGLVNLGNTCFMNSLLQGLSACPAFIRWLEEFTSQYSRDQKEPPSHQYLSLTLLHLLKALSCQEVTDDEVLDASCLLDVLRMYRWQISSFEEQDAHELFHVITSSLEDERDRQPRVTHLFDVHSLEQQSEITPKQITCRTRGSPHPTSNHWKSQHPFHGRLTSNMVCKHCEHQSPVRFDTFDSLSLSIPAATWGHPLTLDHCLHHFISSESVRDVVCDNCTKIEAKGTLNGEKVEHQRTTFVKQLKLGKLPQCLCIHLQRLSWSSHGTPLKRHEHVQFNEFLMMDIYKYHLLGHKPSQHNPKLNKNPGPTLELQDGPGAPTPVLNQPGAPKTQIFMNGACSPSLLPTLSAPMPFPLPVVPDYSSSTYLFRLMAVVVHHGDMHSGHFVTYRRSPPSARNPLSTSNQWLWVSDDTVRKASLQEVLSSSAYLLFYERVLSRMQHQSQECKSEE
Excerpt: USP7 and USP30 are USP DUBs and belong to the same structural family as USP22, while CYLD belongs to the structurally distinct ubiquitin C-terminal hydrolase (UCH) family of DUBs. […]

Sequence of USP22/ATXN7L3/ENY2/ATXN7 (hDUBm) (Q9UPT9 whole entry): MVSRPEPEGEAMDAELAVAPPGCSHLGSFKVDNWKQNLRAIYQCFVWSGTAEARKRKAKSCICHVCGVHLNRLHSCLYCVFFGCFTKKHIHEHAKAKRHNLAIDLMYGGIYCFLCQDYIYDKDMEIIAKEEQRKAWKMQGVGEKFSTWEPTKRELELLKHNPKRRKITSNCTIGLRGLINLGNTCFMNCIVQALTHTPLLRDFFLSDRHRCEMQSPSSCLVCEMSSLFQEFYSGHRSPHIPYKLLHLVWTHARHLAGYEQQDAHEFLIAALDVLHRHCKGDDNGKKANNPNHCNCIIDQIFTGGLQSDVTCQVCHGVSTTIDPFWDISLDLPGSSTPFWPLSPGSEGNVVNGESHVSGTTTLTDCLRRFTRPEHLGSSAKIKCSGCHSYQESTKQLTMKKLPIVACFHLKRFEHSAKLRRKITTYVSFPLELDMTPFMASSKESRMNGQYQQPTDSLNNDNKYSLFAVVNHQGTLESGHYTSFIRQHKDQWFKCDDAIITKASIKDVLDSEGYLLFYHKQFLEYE
Sequence of USP22/ATXN7L3/ENY2/ATXN7 (hDUBm) (O15265 3-151 partner limits assumed): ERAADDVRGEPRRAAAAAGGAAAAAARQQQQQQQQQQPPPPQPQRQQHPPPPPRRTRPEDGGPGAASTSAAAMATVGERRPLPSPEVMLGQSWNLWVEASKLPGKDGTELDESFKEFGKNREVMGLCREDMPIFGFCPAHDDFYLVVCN
Sequence of USP22/ATXN7L3/ENY2/ATXN7 (hDUBm) (Q14CW9 whole entry partner): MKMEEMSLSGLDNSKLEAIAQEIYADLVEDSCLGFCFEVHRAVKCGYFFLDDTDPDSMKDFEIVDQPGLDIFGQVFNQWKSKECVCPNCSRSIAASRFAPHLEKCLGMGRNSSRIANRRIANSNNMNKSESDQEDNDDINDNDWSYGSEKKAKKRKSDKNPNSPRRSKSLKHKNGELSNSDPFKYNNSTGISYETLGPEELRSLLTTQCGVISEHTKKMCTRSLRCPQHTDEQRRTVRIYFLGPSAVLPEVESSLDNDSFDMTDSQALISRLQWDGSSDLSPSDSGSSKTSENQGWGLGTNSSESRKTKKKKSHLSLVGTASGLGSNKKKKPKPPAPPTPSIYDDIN
Sequence of USP22/ATXN7L3/ENY2/ATXN7 (hDUBm) (Q9NPA8 whole entry partner): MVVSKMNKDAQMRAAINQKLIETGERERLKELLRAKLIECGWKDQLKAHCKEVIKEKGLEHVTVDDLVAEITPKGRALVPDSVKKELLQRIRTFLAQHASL

CC[C@H](C)[C@@H]1NC(=O)[C@H](C)NC(=O)[C@@H](Cc2ccc(O)cc2)NC(=O)CSC[C@@H](C(N)=O)NC(=O)[C@H](CC(C)C)NC(=O)[C@H](CC(C)C)NC(=O)[C@H]([C@@H](C)O)NC(=O)[C@H]([C@@H](C)O)NC(=O)[C@H](CCCCN)NC(=O)CNC(=O)[C@H](CCCNC(=N)N)NC(=O)[C@H](Cc2ccc(O)cc2)NC(=O)[C@H](CO)NC1=O [hD1] ({CH2CO}-[dY]AISYRGKTTLLC-NH2; thioether N-13)
IC50 [1]: 100 nM | reduction of USP27x activity (USP27x): ~50% | effect on USP30 activity (USP30): ~15%
